Results: US20170066759A1, “AROMATIC 5-MEMBERED HETEROCYCLIC DERIVATIVE HAVING TRPV4-INHIBITING ACTIVITY” (Shionogi & Co., Ltd., priority 2012, published 2017)

Biological target: T1, human TRPV4 (hTRPV4/CHO cells) (Homo sapiens, UniProt Q9HBA0)
T1 construct: expressed in transfected cells; host or cells: CHO-K1
Test: Test Example 1: TRPV4 inhibitory activity (IC50 value), 4α-PDD stimulation, Fluo4 calcium fluorescence (FLIPR TETRA)
Type: cell-based
Settings: Test Example 1, 4α-PDD stimulation, read-out: Test 1 IC50

T1 sequence (Q9HBA0 whole entry): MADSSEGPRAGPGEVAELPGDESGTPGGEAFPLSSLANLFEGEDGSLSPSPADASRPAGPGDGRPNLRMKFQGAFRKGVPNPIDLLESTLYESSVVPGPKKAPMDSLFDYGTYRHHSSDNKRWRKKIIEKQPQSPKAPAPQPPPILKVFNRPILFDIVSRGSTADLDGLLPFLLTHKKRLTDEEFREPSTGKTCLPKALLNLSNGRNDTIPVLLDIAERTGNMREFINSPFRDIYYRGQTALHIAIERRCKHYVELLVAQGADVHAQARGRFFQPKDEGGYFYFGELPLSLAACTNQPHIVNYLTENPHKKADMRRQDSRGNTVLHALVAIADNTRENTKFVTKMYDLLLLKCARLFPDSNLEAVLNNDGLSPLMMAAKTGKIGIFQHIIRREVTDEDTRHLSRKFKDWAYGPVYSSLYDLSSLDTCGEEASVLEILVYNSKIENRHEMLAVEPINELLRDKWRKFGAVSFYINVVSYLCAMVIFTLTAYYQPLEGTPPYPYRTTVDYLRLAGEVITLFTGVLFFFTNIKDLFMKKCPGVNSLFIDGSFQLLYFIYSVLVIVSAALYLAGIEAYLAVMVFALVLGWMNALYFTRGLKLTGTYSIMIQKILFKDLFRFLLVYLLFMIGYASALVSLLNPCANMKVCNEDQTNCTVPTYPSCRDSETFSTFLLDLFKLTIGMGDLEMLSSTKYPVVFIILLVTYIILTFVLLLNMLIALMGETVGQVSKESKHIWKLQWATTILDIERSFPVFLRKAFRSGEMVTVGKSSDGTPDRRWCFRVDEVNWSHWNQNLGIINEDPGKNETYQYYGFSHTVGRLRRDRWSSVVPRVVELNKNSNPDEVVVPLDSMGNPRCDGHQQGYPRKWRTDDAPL

Structure (SMILES) | IC50 [nM]
Cc1nc(C)c(-c2csc(NC(=O)Cc3ccc(NC(=O)c4ccccc4)cc3)n2)s1 [Compound I-413] | 100 to 1000
CC(=O)Nc1cccc(CC(=O)Nc2nc(-c3sc(C)nc3C)cs2)c1 [Compound I-414] | 1000 to 8000
Cc1nc(C)c(-c2csc(NC(=O)Cc3cccc(NC(=O)C(C)C)c3)n2)s1 [Compound I-415] | 100 to 1000
Cc1nc(C)c(-c2csc(NC(=O)Cc3cccc(NC(=O)C4CCCCC4)c3)n2)s1 [Compound I-416] | < 100
Cc1nc(C)c(-c2csc(NC(=O)Cc3cccc(NC(=O)C(F)(F)F)c3)n2)s1 [Compound I-417] | < 100
Cc1nc(C)c(-c2csc(NC(=O)Cc3cccc(NS(=O)(=O)c4ccccc4)c3)n2)s1 [Compound I-418] | < 100
Cc1nc(CO)oc1-c1csc(NC(=O)Cn2cc(C(F)(F)F)cn2)n1 [Compound I-419] | 1000 to 8000
Cc1nc(C)c(-c2csc(NC(=O)Cn3cc(CNC(=O)OC(C)(C)C)nn3)n2)s1 [Compound I-421] | 1000 to 8000
Cc1nc(C)c(-c2csc(NC(=O)Cn3cc(-c4ccc(S(C)(=O)=O)cc4)nn3)n2)s1 [Compound I-422] | 100 to 1000
Cc1nc(C)c(-c2csc(NC(=O)Cn3cc(-c4ccc(Cl)cc4)nn3)n2)s1 [Compound I-423] | < 100
Cc1nc(C)c(-c2csc(NC(=O)Cn3cc(COc4ccccc4)nn3)n2)s1 [Compound I-424] | < 100
Cc1nc(C)c(-c2csc(NC(=O)Cn3cc(CNc4ccccc4)nn3)n2)s1 [Compound I-425] | 100 to 1000
Cc1nc(C)c(-c2csc(NC(=O)Cn3cc(-c4ccccn4)nn3)n2)s1 [Compound I-426] | 1000 to 8000
Cc1nc(C)c(-c2csc(NC(=O)Cn3cc(-c4ccc(N(C)C)cc4)nn3)n2)s1 [Compound I-427] | 100 to 1000
Cc1nc(C)c(-c2csc(NC(=O)Cn3cc(Cn4cccc4)nn3)n2)s1 [Compound I-428] | 100 to 1000
Cc1nc(C)c(-c2csc(NC(=O)Cn3cc(CCCC#N)nn3)n2)s1 [Compound I-429] | 1000 to 8000
Cc1nc(C)c(-c2csc(NC(=O)Cn3cc(C4CC4)nn3)n2)s1 [Compound I-430] | 100 to 1000
CCOc1cn(CC(=O)Nc2nc(-c3sc(C)nc3C)cs2)nn1 [Compound I-431] | 1000 to 8000
Cc1nc(C)c(-c2csc(NC(=O)Cc3cccc(N(C)C(=O)c4ccccc4)c3)n2)s1 [Compound I-432] | 100 to 1000
Cc1nc(CO)sc1-c1csc(NC(=O)C2CN(S(=O)(=O)CCC(F)(F)F)C2)n1 [Compound I-433] | 100 to 1000
COC(=O)N(C)Cc1nc(CO)sc1-c1csc(NC(=O)Cc2ccc(S(=O)(=O)C(F)(F)F)cc2)n1 [Compound I-434] | < 100
COC(=O)NCc1nc(CO)sc1-c1csc(NC(=O)Cc2ccc(S(=O)(=O)C(F)(F)F)cc2)n1 [Compound I-435] | < 100
CN(Cc1nc(CO)sc1-c1csc(NC(=O)Cc2ccc(S(=O)(=O)C(F)(F)F)cc2)n1)C(=O)CO [Compound I-436] | 100 to 1000
Cc1nc(CCO)sc1-c1csc(NC(=O)Cc2ccc(S(=O)(=O)C(F)(F)F)cc2)n1 [Compound I-437] | < 100
CCOCC(=O)NCc1nc(CO)sc1-c1csc(NC(=O)Cc2ccc(S(=O)(=O)C(F)(F)F)cc2)n1 [Compound I-438] | < 100
O=C(Cc1ccc(S(=O)(=O)C(F)(F)F)cc1)Nc1nc(-c2sc(CO)nc2CNC(=O)C2(C(F)(F)F)CC2)cs1 [Compound I-439] | < 100
NC(=O)OCC(=O)NCc1nc(CO)sc1-c1csc(NC(=O)Cc2ccc(S(=O)(=O)C(F)(F)F)cc2)n1 [Compound I-440] | 100 to 1000
CNC(=N)c1nc(C)c(-c2csc(NC(=O)Cc3ccc(S(=O)(=O)C(F)(F)F)cc3)n2)s1 [Compound I-441] | 100 to 1000

Structure (SMILES) | IC50 [nM]
Cc1nc(CO)sc1-c1csc(NC(=O)NCc2ccc(Cl)cc2)n1 [Compound I-442] | 100 to 1000
Cc1nc(C)c(-c2csc(NC(=O)Cc3cccc(I)c3)n2)s1 [Compound I-443] | < 100
COc1nc(C)c(-c2csc(NC(=O)Cc3ccc(S(=O)(=O)C(F)(F)F)cc3)n2)s1 [Compound I-444] | < 100
COCCOc1nc(C)c(-c2csc(NC(=O)Cc3ccc(S(=O)(=O)C(F)(F)F)cc3)n2)s1 [Compound I-445] | 1000 to 8000
Cc1nc(OCCOCc2ccccc2)sc1-c1csc(NC(=O)Cc2ccc(S(=O)(=O)C(F)(F)F)cc2)n1 [Compound I-446] | 1000 to 8000
Cc1nc(CO)sc1-c1csc(NC(=O)Nc2ccc(C(F)(F)F)nc2)n1 [Compound I-447] | < 100
Cc1nc(CO)sc1-c1csc(NC(=O)C2C[C@H](C(F)(F)F)CN2C(=O)OC(C)(C)C)n1 (stereo partly shown) [Compound I-448] | < 100
Cc1nc(CO)sc1-c1csc(NC(=O)CC2CCN(c3ncc(C(F)(F)F)cn3)CC2)n1 [Compound I-449] | < 100
Cc1nc(CO)sc1-c1csc(NC(=O)C2CC3(CCC3)C2)n1 [Compound I-450] | < 100
Cc1[nH]c(=O)sc1-c1csc(NC(=O)Cc2ccc(S(=O)(=O)C(F)(F)F)cc2)n1 [Compound I-451] | 100 to 1000
Cc1nc(CO)sc1-c1csc(NC(=O)CC2CCN(S(=O)(=O)CCC(F)(F)F)CC2)n1 [Compound I-452] | 1000 to 8000
Cc1nc(CO)sc1-c1csc(NC(=O)CC2CCN(S(=O)(=O)C(F)(F)F)CC2)n1 [Compound I-453] | 100 to 1000
Cc1nc([C@H](C)O)sc1-c1csc(NC(=O)Cc2ccc(S(=O)(=O)C(F)(F)F)cc2)n1 [Compound I-454] | < 100
Cc1nc([C@@H](C)O)sc1-c1csc(NC(=O)Cc2ccc(S(=O)(=O)C(F)(F)F)cc2)n1 [Compound I-455] | < 100
Cc1nc(CO)c(-c2csc(NC(=O)Cc3ccc(S(=O)(=O)C(F)(F)F)cc3)n2)s1 [Compound I-456] | < 100
Cc1nc(CO)sc1-c1csc(NC(=O)CC2CC3(CCC3)C2)n1 [Compound I-457] | < 100
Cc1nc(CO)sc1-c1csc(NC(=O)CCc2ccc(Cl)cc2)n1 [Compound I-458] | < 100
COCc1nc(C)c(-c2csc(NC(=O)Cc3ccc(S(=O)(=O)C(F)(F)F)cc3)n2)s1 [Compound I-459] | 100 to 1000
Cc1nc(COCC(F)(F)F)sc1-c1csc(NC(=O)Cc2ccc(S(=O)(=O)C(F)(F)F)cc2)n1 [Compound I-460] | 1000 to 8000
Cc1nc(OCCO)sc1-c1csc(NC(=O)Cc2ccc(S(=O)(=O)C(F)(F)F)cc2)n1 [Compound I-461] | 100 to 1000
Cc1nc(CO)sc1-c1csc(NC(=O)/C=C/c2ccccc2)n1 [Compound I-462] | 100 to 1000
O=C(Cc1ccc(S(=O)(=O)C(F)(F)F)cc1)Nc1nc(-c2sc(CO)nc2CN2CCCC2=O)cs1 [Compound I-463] | 100 to 1000
Cc1nc(CO)sc1-c1csc(NC(=O)C2C[C@H](C(F)(F)F)CN2C(=O)C(F)(F)F)n1 (stereo partly shown) [Compound I-464] | 1000 to 8000
Cc1nc(CO)sc1-c1csc(NC(=O)C2C[C@H](C(F)(F)F)CN2C(=O)C(F)(F)F)n1 (stereo partly shown) [Compound I-465] | 100 to 1000
Cc1nc(CO)sc1-c1csc(NC(=O)/C=C/c2ccc(Cl)cc2)n1 [Compound I-466] | 100 to 1000
Cc1nc(COC(N)=O)c(-c2csc(NC(=O)Cc3ccc(S(=O)(=O)C(F)(F)F)cc3)n2)s1 [Compound I-468] | < 100
Cc1nc(C)c(-c2csc(NC(=O)Cc3cccc(C(=O)Nc4ccccc4)c3)n2)s1 [Compound I-469] | < 100
